Assay results as given in PMC10601079 (ACS Omega, 2023).

These molecules were tested on ACS (assay: coupled spectrophotometric assay of AMP formation). Conditions: 2.5 mM ATP, 1.5 mM CoA, 5 mM MgCl2, 1 mM DTT, 50 mM potassium phosphate pH 7.5, 25 °C.
Assay type: biochemical, Gordonia sp. NB4-1Y
A Km of 12.5 ± 0.7 mM was found for `O=C(O)CCCC(F)(F)F` [1:4 FTCA, 5,5,5-trifluoropentanoic acid] in this work. A Km of 1.7 ± 0.2 mM was found for `CCC(=O)O` [propionic acid] in this work. A Km of 78.3 ± 7.4 mM was found for `CC(=O)O` [acetate] in this work. A Km of 0.109 ± 0.011 mM was found for `CCCCC(=O)O` [pentanoic acid] in this work.
